Measurements from US20260183286A1, “Compositions and Methods for an Oral Supplement to Oral Minoxidil for the Treatment of Alopecia” (FOLLEA INTERNATIONAL, priority 2023, published 2026).

System: SLC22A9
Assay: Placebo controlled study of ammonium chloride oral supplement: SLC22A9 expression from hair follicles
Type: in vivo
Settings: 268 mg ammonium chloride oral supplement daily for 5 days; measured at baseline and day 5; 10 subjects active vs 10 placebo; p=0.01
Description: A placebo controlled study was conducted with a 268 mg ammonium chloride oral supplement to ascertain increase in SLC22A9 up-regulation. Ten subjects were administered the placebo and 10 subjects were administered ammonium chloride daily for 5 days. The SLC22A9 expression from hair follicles was measured at baseline and day 5. SLC22A9 increased 3 folds and was statistically significant p=0.01 increased in the active vs placebo group.

With Cl.N [ammonium chloride] the “SLC22A9 expression from hair follicles, increase” value was 3 folds.
